From patent US20250179061A1 (SIRONAX LTD., priority 2022, published 2025)

test system: HT-29 cells; test: HT-29 necroptosis cell viability assay (TNF-α/SMAC mimetic/zVAD-FMK, CellTiter-Glo); format: cell-based; conditions: Homo sapiens, HT-29, HT-29 necroptosis cell viability, IC50 class symbols; read-out: Activity
Method in brief: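 HT-29 cells (~5,000/well, overnight) in FBS-free McCoy's 5A with TNF-α 10 ng/ml, SMAC mimetic 6 μM and zVAD-FMK 10 μM plus 10-point 1:3 compound titration, 20 h at 37°C. ATP measured by CellTiter-Glo luminescence; IC50 as geometric mean of duplicates.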

SMILES | IC50 [nM]
Cc1cnc(N2CCC(C)(C#N)C2)cc1Oc1ccc(-n2ncn(Cc3c(F)cccc3F)c2=O)cc1F (stereo not shown) [Example 228, 1-(4-(4-(4-(2,6-difluorobenzyl)-5-oxo-4,5-dihydro-1H-1,2,4-triazol-1-yl)-2-fluorophenoxy)-5-methylpyridin-2-yl)-3-methylpyrrolidine-3-carbonitrile] | < 100
COC1(C#N)CN(c2cc(Oc3ccc(-n4ncn(Cc5c(F)cccc5F)c4=O)cc3F)c(F)cn2)C1 [Example 230, 1-(4-(4-(4-(2,6-difluorobenzyl)-5-oxo-4,5-dihydro-1H-1,2,4-triazol-1-yl)-2-fluorophenoxy)-5-fluoropyridin-2-yl)-3-methoxyazetidine-3-carbonitrile] | < 100
COC1(C#N)CN(c2cc(Oc3ccc(-n4ncn(Cc5c(F)cccc5F)c4=O)cc3F)c(Cl)cn2)C1 [Example 231, 1-(5-chloro-4-(4-(4-(2,6-difluorobenzyl)-5-oxo-4,5-dihydro-1H-1,2,4-triazol-1-yl)-2-fluorophenoxy)pyridin-2-yl)-3-methoxyazetidine-3-carbonitrile] | < 100
C[C@H]1[C@H](C#N)CN1c1cc(Oc2ccc(-n3ncn(Cc4c(F)cccc4F)c3=O)cc2F)c(F)cn1 [Example 232, (2S,3R)-1-(4-(4-(4-(2,6-difluorobenzyl)-5-oxo-4,5-dihydro-1H-1,2,4-triazol-1-yl)-2-fluorophenoxy)-5-fluoropyridin-2-yl)-2-methylazetidine-3-carbonitrile] | < 100
C[C@H]1[C@H](C#N)CN1c1cc(Oc2ccc(-n3ncn(Cc4c(F)cccc4F)c3=O)cc2F)c(Cl)cn1 [Example 233, (2S,3R)-1-(5-chloro-4-(4-(4-(2,6-difluorobenzyl)-5-oxo-4,5-dihydro-1H-1,2,4-triazol-1-yl)-2-fluorophenoxy)pyridin-2-yl)-2-methylazetidine-3-carbonitrile] | < 100
CCOC1CN(c2ncnc(Oc3ccc(-n4ncn(Cc5c(F)cccc5F)c4=O)cc3)c2F)C1 [Example 234, 4-(2,6-difluorobenzyl)-2-(4-((6-(3-ethoxyazetidin-1-yl)-5-fluoropyrimidin-4-yl)oxy)phenyl)-2,4-dihydro-3H-1,2,4-triazol-3-one] | 100 to 1000
CCOC1CN(c2nccc(Oc3ccc(-n4ncn(Cc5c(F)cccc5F)c4=O)cc3)c2C)C1 [Example 236, 4-(2,6-difluorobenzyl)-2-(4-((2-(3-ethoxyazetidin-1-yl)-3-methylpyridin-4-yl)oxy)phenyl)-2,4-dihydro-3H-1,2,4-triazol-3-one] | < 100
O=c1n(Cc2c(F)cccc2F)cnn1-c1ccc(Oc2cc(N3CC4(COC4)C3)ncc2F)c(F)c1 [Example 237, 4-(2,6-difluorobenzyl)-2-(3-fluoro-4-((5-fluoro-2-(2-oxa-6-azaspiro[3.3]heptan-6-yl)pyridin-4-yl)oxy)phenyl)-2,4-dihydro-3H-1,2,4-triazol-3-one] | < 100
CC1(C#N)CN(c2nccc(Oc3ccc(-n4ncn(Cc5c(F)cccc5F)c4=O)cc3F)c2Cl)C1 [Example 238, 1-(3-chloro-4-(4-(4-(2,6-difluorobenzyl)-5-oxo-4,5-dihydro-1H-1,2,4-triazol-1-yl)-2-fluorophenoxy)pyridin-2-yl)-3-methylazetidine-3-carbonitrile] | < 100
COC1(C#N)CN(c2cc(Oc3ccc(-n4ncn(Cc5c(F)cccc5F)c4=O)cc3F)c(C)cn2)C1 [Example 239, 1-(4-(4-(4-(2,6-difluorobenzyl)-5-oxo-4,5-dihydro-1H-1,2,4-triazol-1-yl)-2-fluorophenoxy)-5-methylpyridin-2-yl)-3-methoxyazetidine-3-carbonitrile] | < 100
C[C@H]1C[C@@H](C#N)CN1c1cc(Oc2ccc(-n3ncn(Cc4c(F)cccc4F)c3=O)cc2F)c(Cl)cn1 [Example 240, (3R,5S)-1-(5-chloro-4-(4-(4-(2,6-difluorobenzyl)-5-oxo-4,5-dihydro-1H-1,2,4-triazol-1-yl)-2-fluorophenoxy)pyridin-2-yl)-5-methylpyrrolidine-3-carbonitrile] | < 100
C[C@H]1[C@@H](N(C)C)CN1c1cc(Oc2ccc(-n3ncn(Cc4c(F)cccc4F)c3=O)cc2F)c(F)cn1 [Example 241, 4-(2,6-difluorobenzyl)-2-(4-((2-((2S,3S)-3-(dimethylamino)-2-methylazetidin-1-yl)-5-fluoropyridin-4-yl)oxy)-3-fluorophenyl)-2,4-dihydro-3H-1,2,4-triazol-3-one] | < 100
C[C@H]1[C@@H](C#N)CN1c1nccc(Oc2ccc(-n3ncn(Cc4c(F)cccc4F)c3=O)cc2)c1F [Example 242, (2S,3S)-1-(4-(4-(4-(2,6-difluorobenzyl)-5-oxo-4,5-dihydro-1H-1,2,4-triazol-1-yl)phenoxy)-3-fluoropyridin-2-yl)-2-methylazetidine-3-carbonitrile] | < 100
CCCOC1CN(c2cc(Oc3ccc(-n4ncn(Cc5c(F)cccc5F)c4=O)cc3)ccn2)C1 [Example 243, 4-(2,6-difluorobenzyl)-2-(4-((2-(3-propoxyazetidin-1-yl)pyridin-4-yl)oxy)phenyl)-2,4-dihydro-3H-1,2,4-triazol-3-one] | < 100
C[C@H]1COCCN1c1cc(Oc2ccc(-n3ncn(Cc4c(F)cccc4F)c3=O)cc2)ccn1 [Example 244, (S)-4-(2,6-difluorobenzyl)-2-(4-((2-(3-methylmorpholino)pyridin-4-yl)oxy)phenyl)-2,4-dihydro-3H-1,2,4-triazol-3-one] | 100 to 1000
O=c1n(Cc2c(F)cccc2F)cnn1-c1ccc(Oc2ccnc(N3CCC34COC4)c2)cc1 [Example 245, 2-(4-((2-(6-oxa-1-azaspiro[3.3]heptan-1-yl)pyridin-4-yl)oxy)phenyl)-4-(2,6-difluorobenzyl)-2,4-dihydro-3H-1,2,4-triazol-3-one] | 100 to 1000
N#CC12CC(Nc3nccc(Oc4ccc(-n5ncn(Cc6c(F)cccc6F)c5=O)cc4F)c3F)(C1)C2 [Example 246, 3-((4-(4-(4-(2,6-difluorobenzyl)-5-oxo-4,5-dihydro-1H-1,2,4-triazol-1-yl)-2-fluorophenoxy)-3-fluoropyridin-2-yl)amino)bicyclo[1.1.1]pentane-1-carbonitrile] | < 100
Cc1c(Oc2ccc(-n3ncn(Cc4c(F)cccc4F)c3=O)cc2)ccnc1NC12CC(C#N)(C1)C2 [Example 247, 3-((4-(4-(4-(2,6-difluorobenzyl)-5-oxo-4,5-dihydro-1H-1,2,4-triazol-1-yl)phenoxy)-3-methylpyridin-2-yl)amino)bicyclo[1.1.1]pentane-1-carbonitrile] | < 100
N#CC12CC(Nc3nccc(Oc4ccc(-n5ncn(Cc6c(F)cccc6F)c5=O)cc4)c3Cl)(C1)C2 [Example 248, 3-((3-chloro-4-(4-(4-(2,6-difluorobenzyl)-5-oxo-4,5-dihydro-1H-1,2,4-triazol-1-yl)phenoxy)pyridin-2-yl)amino)bicyclo[1.1.1]pentane-1-carbonitrile] | < 100
CC1(O)CN(c2cc(Oc3ncc(-n4ncn(Cc5c(F)cccc5F)c4=O)cc3F)ccn2)C1 [Example 249, 4-(2,6-difluorobenzyl)-2-(5-fluoro-6-((2-(3-hydroxy-3-methylazetidin-1-yl)pyridin-4-yl)oxy)pyridin-3-yl)-2,4-dihydro-3H-1,2,4-triazol-3-one] | 100 to 1000
C[C@H]1[C@@H](O)CN1c1cc(Oc2ncc(-n3ncn(Cc4c(F)cccc4F)c3=O)cc2F)ccn1 [Example 250, 4-(2,6-difluorobenzyl)-2-(5-fluoro-6-((2-((2S,3S)-3-hydroxy-2-methylazetidin-1-yl)pyridin-4-yl)oxy)pyridin-3-yl)-2,4-dihydro-3H-1,2,4-triazol-3-one] | < 100
Cc1cnc(N2CC(C)(C#N)C2)cc1Oc1ccc(-n2ncn(Cc3c(F)cccc3F)c2=O)cc1Cl [Example 251, 1-(4-(2-chloro-4-(4-(2,6-difluorobenzyl)-5-oxo-4,5-dihydro-1H-1,2,4-triazol-1-yl)phenoxy)-5-methylpyridin-2-yl)-3-methylazetidine-3-carbonitrile] | < 100
N#CC1(F)CN(c2cc(Oc3ccc(-n4ncn(Cc5c(F)cccc5F)c4=O)cc3)ccn2)C1 [Example 252, 1-(4-(4-(4-(2,6-difluorobenzyl)-5-oxo-4,5-dihydro-1H-1,2,4-triazol-1-yl)phenoxy)pyridin-2-yl)-3-fluoroazetidine-3-carbonitrile] | 100 to 1000
CC(C)OC1CN(c2cccc(Oc3ccc(-n4ncn(Cc5c(F)cccc5F)c4=O)cc3)n2)C1 [Example 253, 4-(2,6-difluorobenzyl)-2-(4-((6-(3-isopropoxyazetidin-1-yl)pyridin-2-yl)oxy)phenyl)-2,4-dihydro-3H-1,2,4-triazol-3-one] | < 100
CC1(C)CC(=O)N(c2cc(Oc3ccc(-n4ncn(Cc5c(F)cccc5F)c4=O)cc3)ccn2)C1 [Example 254, 4-(2,6-difluorobenzyl)-2-(4-((2-(4,4-dimethyl-2-oxopyrrolidin-1-yl)pyridin-4-yl)oxy)phenyl)-2,4-dihydro-3H-1,2,4-triazol-3-one] | 100 to 1000
N#CC1CCN(c2cc(Oc3ccc(-n4ncn(Cc5c(F)cccc5F)c4=O)cc3)ccn2)CC1 [Example 255, 1-(4-(4-(4-(2,6-difluorobenzyl)-5-oxo-4,5-dihydro-1H-1,2,4-triazol-1-yl)phenoxy)pyridin-2-yl)piperidine-4-carbonitrile] | 100 to 1000
CC1(C#N)CN(c2nccc(Oc3ccc(-n4ncn(Cc5c(F)cccc5F)c4=O)cc3Cl)c2Cl)C1 [Example 256, 1-(3-chloro-4-(2-chloro-4-(4-(2,6-difluorobenzyl)-5-oxo-4,5-dihydro-1H-1,2,4-triazol-1-yl)phenoxy)pyridin-2-yl)-3-methylazetidine-3-carbonitrile] | < 100
CC1(C#N)CN(c2cc(Oc3ccc(-n4ncn(Cc5c(F)cccc5F)c4=O)cc3F)c(Cl)cn2)C1 [Example 257, 1-(5-chloro-4-(4-(4-(2,6-difluorobenzyl)-5-oxo-4,5-dihydro-1H-1,2,4-triazol-1-yl)-2-fluorophenoxy)pyridin-2-yl)-3-methylazetidine-3-carbonitrile] | < 100
